Test results from US6893813B2, “Methods for treatment of HIV and other infections using a T cell or viral activator and anti-retroviral combination therapy” (priority 1997, dated 2005).

Tests used:
[1] = test system: HIV; test: HIV replication (p24 in culture supernatant) in PBMC cultures without anti-retroviral drugs; type: cell-based, human; settings: no anti-retroviral drugs
From the text: (§1) The percent of CD8+ cells in the culture increased with lower concentrations of CD3,8 BSMAB. […] Absent anti-retroviral drugs, this massive activation of HIV will eventually cause a sharp decrease in the CD4+ T cell population.

[2] = test system: PBMCs isolated from HIV-infected subjects; test: culture of PBMCs from HIV-infected subjects without anti-retroviral drugs: T cell subsets; type: cell-based, human; settings: no anti-retroviral drugs
From the text: as §1

phytohemagglutinin [PHA]
HIV replication (p24 in supernatant) [1]: induced increased HIV replication
T cell subsets activated [2]: both CD4+ and CD8+ T cells were activated
selective outgrowth of CD4+ T cells [2]: No selective outgrowth of the CD4+ T cells occurred
